The results in this text go back to ChEMBL document CHEMBL2417465, “One-pot synthesis and cytotoxicity studies of new Mannich base derivatives of polyether antibiotic--lasalocid acid” (Bioorg Med Chem Lett, 2013).

By IC50 is commonly meant the concentration that inhibits the measured activity by half. The low end stands for greater potency in that assay, the high end for weaker potency in that assay.

Molecules are shown by their SMILES. The source made the active and inactive calls. No cut-off for these calls is given here.

The test system of one data set is BALB/3T3. The data set is described as follows: Cytotoxicity against mouse BALB/3T3 cells after 72 hrs by SRB assay. The data set is classed as cell-based. As to conditions: for Activity: mouse, balb/3t3, 72 h; for IC50: Mus musculus, BALB/3T3, 72 h. (In general: Sulforhodamine B stains cellular protein and so reports cell mass.)
A short description of data set [1]: Cytotoxicity against HLMEC cells after 72 hrs by SRB assay. The data set is classed as cell-based, Homo sapiens. To be noted: for Activity: human, hlmec; for IC50: Homo sapiens, HLMEC.
Data set [2] has as its system MCF7. The data set is described as follows: Cytotoxicity against human MCF7 cells after 72 hrs by MTT assay. The data set is classed as functional, cell-based. To be noted: for IC50: MCF7, 72 h. (In general: Tetrazolium dyes change colour on reduction, which living cells bring about.)
Data set [3] deals with HT-29. The experiment in a line: Cytotoxicity against human HT-29 cells after 72 hrs by MTT assay. The class given is functional, cell-based. To be noted: for IC50: HT-29, 72 h.
Data set [4] deals with A549. The experiment in a line: Cytotoxicity against human A549 cells after 72 hrs by MTT assay. The class given is functional, cell-based. To be noted: for IC50: A549, 72 h.
The test system of data set [5] is P388. The data set is described as follows: Cytotoxicity against mouse P388 cells after 72 hrs by MTT assay. The class given is functional, cell-based. To be noted: for IC50: P388, 72 h.
Data set [6] deals with MCF7. The experiment in a line: Selectivity index, ratio of IC50 for HLMEC cells to IC50 for human MCF7 cells. The data set is classed as functional.
The subject of data set [7] is HT-29. The experiment in a line: Selectivity index, ratio of IC50 for HLMEC cells to IC50 for human HT-29 cells. The class given is functional.
The subject of data set [8] is A549. The data set is described as follows: Selectivity index, ratio of IC50 for HLMEC cells to IC50 for human A549 cells. The data set is classed as functional.
The subject of data set [9] is P388. The data set is described as follows: Selectivity index, ratio of IC50 for HLMEC cells to IC50 for mouse P388 cells. The data set is classed as functional.
The test system of data set [10] is MCF7. The experiment in a line: Selectivity index, ratio of IC50 for mouse BALB/3T3 cells to IC50 for human MCF7 cells. The class given is functional.
Data set [11] has as its system HT-29. The data set is described as follows: Selectivity index, ratio of IC50 for mouse BALB/3T3 cells to IC50 for human HT-29 cells. The class given is functional.
Data set [12] deals with A549. The data set is described as follows: Selectivity index, ratio of IC50 for mouse BALB/3T3 cells to IC50 for human A549 cells. The data set is classed as functional.
Data set [13] deals with P388. The experiment in a line: Selectivity index, ratio of IC50 for mouse BALB/3T3 cells to IC50 for mouse P388 cells. The class given is functional.

Consider `CCCCCCCCCCCCN(CCCCCCCCCCCC)Cc1c(CC[C@@H](C)[C@H](O)[C@H](C)C(=O)[C@H](CC)[C@H]2O[C@](CC)([C@H]3CC[C@](O)(CC)[C@H](C)O3)C[C@@H]2C)ccc(C)c1O`, for which the Activity result (with BALB/3T3; in data set [1]) was “Non-toxic” in each case. The result with MCF7 [2], in the data set on HT-29 [3], in the data set on A549 [4] and in the data set on P388 [5] was inactive.
For `CCCCCCCCN(CCCCCCCC)Cc1c(CC[C@@H](C)[C@H](O)[C@H](C)C(=O)[C@H](CC)[C@H]2O[C@](CC)([C@H]3CC[C@](O)(CC)[C@H](C)O3)C[C@@H]2C)ccc(C)c1O`, the Activity entry (in the data set with BALB/3T3; in data set [1]) was “Non-toxic” throughout. Besides, the result in the data set with MCF7 [2], with HT-29 [3], in the data set with A549 [4] and in the data set on P388 [5] was inactive.
For the compound `CCCCN(CCCC)Cc1c(CC[C@@H](C)[C@H](O)[C@H](C)C(=O)[C@H](CC)[C@H]2O[C@](CC)([C@H]3CC[C@](O)(CC)[C@H](C)O3)C[C@@H]2C)ccc(C)c1O`, the “Ratio IC50” value in the data set with MCF7 [6] came to 0.73; in the data set with HT-29 [7], 0.63; in the data set with A549 [8], 0.84; in the data set on P388 [9] it was 0.69. In addition, the IC50 came out at 4.43 µM in data set [1]; 6.11 µM in the data set on MCF7 [2]; 7.02 µM in the data set with HT-29 [3]; 5.27 µM with A549 [4]; 6.35 µM in the data set on P388 [5].
`CC[C@@H](C(=O)[C@@H](C)[C@@H](O)[C@H](C)CCc1ccc(C)c(O)c1CN1CCOCC1)[C@H]1O[C@](CC)([C@H]2CC[C@](O)(CC)[C@H](C)O2)C[C@@H]1C`: the “Ratio IC50” value in the data set on MCF7 [10] was 6.89; in the data set on MCF7 [6], 2.33; in the data set with HT-29 [11], 2.5; in the data set with HT-29 [7] it was 0.85; in the data set on A549 [12] it was 2.1; with A549 [8] it was 0.71. Further, the “Ratio IC50” value with P388 [13] was 4.44; with P388 [9], 1.5. For the same compound, the IC50 worked out at 14.3 µM in the data set with BALB/3T3; 4.86 µM in [1]; 2.08 µM with MCF7 [2]; 5.74 µM in the data set on HT-29 [3]; 6.81 µM in the data set with A549 [4]; 3.23 µM in the data set on P388 [5].
For `CCCN(CCC)Cc1c(CC[C@@H](C)[C@H](O)[C@H](C)C(=O)[C@H](CC)[C@H]2O[C@](CC)([C@H]3CC[C@](O)(CC)[C@H](C)O3)C[C@@H]2C)ccc(C)c1O`, the “Ratio IC50” value stood at 4.04 in the data set on MCF7 [10]; 0.73 with MCF7 [6]; 3.23 in the data set on HT-29 [11]; 0.59 in the data set with HT-29 [7]; 4.29 in the data set with A549 [12]; 0.78 with A549 [8]. The “Ratio IC50” value is 6.35 in the data set on P388 [13] and 1.15 in the data set on P388 [9]. The IC50 is 22.7 µM in the data set with BALB/3T3; 4.12 µM in [1]; 5.62 µM in the data set on MCF7 [2]; 7.03 µM in the data set with HT-29 [3]; 5.3 µM with A549 [4]; 3.58 µM in the data set on P388 [5].
On to `CC[C@@H](C(=O)[C@@H](C)[C@@H](O)[C@H](C)CCc1ccc(C)c(O)c1C(=O)O)[C@H]1O[C@](CC)([C@H]2CC[C@](O)(CC)[C@H](C)O2)C[C@@H]1C` [LASALOCID], for which the “Ratio IC50” value turned out to be 2.36 with MCF7 [10]; 0.56 in the data set with MCF7 [6]; 3.77 with HT-29 [11]; 0.9 in the data set with HT-29 [7]; 4.08 with A549 [12]; 0.97 with A549 [8]. The “Ratio IC50” value in the data set with P388 [13] was found to be 1.62; with P388 [9], 0.39. The IC50 is 7.35 µM with BALB/3T3; 1.75 µM in [1]; 3.12 µM in the data set with MCF7 [2]; 1.95 µM in the data set with HT-29 [3]; 1.8 µM in the data set with A549 [4]; 4.54 µM with P388 [5].
Take `CC[C@@H](C(=O)[C@@H](C)[C@@H](O)[C@H](C)CCc1ccc(C)c(O)c1CN(C(C)C)C(C)C)[C@H]1O[C@](CC)([C@H]2CC[C@](O)(CC)[C@H](C)O2)C[C@@H]1C`: the “Ratio IC50” value was 3.1 with MCF7 [10]; 0.84 in the data set with MCF7 [6]; 3.2 in the data set with HT-29 [11]; 0.87 in the data set with HT-29 [7]; 3.03 in the data set with A549 [12]; 0.82 with A549 [8]. Also, the “Ratio IC50” value came out at 3.56 in the data set with P388 [13] and 0.97 in the data set on P388 [9]. In addition, the IC50 in the data set on BALB/3T3 amounted to 17.1 µM; in data set [1], 4.63 µM; in the data set with MCF7 [2], 5.5 µM; with HT-29 [3] it was 5.33 µM; in the data set on A549 [4], 5.62 µM; in the data set on P388 [5], 4.79 µM.
Turning to `CC[C@@H](C(=O)[C@@H](C)[C@@H](O)[C@H](C)CCc1ccc(C)c(O)c1CN(Cc1ccccc1)Cc1ccccc1)[C@H]1O[C@](CC)([C@H]2CC[C@](O)(CC)[C@H](C)O2)C[C@@H]1C`, the “Ratio IC50” value turned out to be 4.17 in the data set with MCF7 [10]; 0.25 in the data set on MCF7 [6]; 1.02 with HT-29 [11]; 0.06 with HT-29 [7]; 2.09 in the data set on A549 [12]; 0.13 with A549 [8]. Besides, the “Ratio IC50” value in the data set with P388 [13] was 18.72; in the data set on P388 [9], 1.12. The IC50 with BALB/3T3 amounted to 76.9 µM; in data set [1] it was 4.61 µM; in the data set with MCF7 [2], 18.4 µM; in the data set with HT-29 [3] it was 75.6 µM; in the data set on A549 [4], 36.8 µM; with P388 [5], 4.11 µM.
